Measured values from patent US20250129012A1, “ANTI-INFLAMMATORY AND ANALGESIC COMPOUNDS AND USE THEREOF” (JIANGSU ATOM BIOSCIENCE AND PHARMACEUTICAL CO., LTD., priority 2021, published 2025).
Like-named read-outs stand apart in the source and are kept apart here. Marks after values point to notes of the source that are not given here.

Key:
TNF-α = experiment: Inflammatory factor experiment B: TNF-α in knee synovial tissue (ELISA); format: in vivo, SD rats; conditions: Rattus norvegicus, po; synovial tissue of knee joints, 48 h after modeling; dose 0.6 mg/kg; read-out: TNF-α percentage decrease %
[1] = test system: gouty arthritis rats (sodium urate, right ankle and knee joint cavities); experiment: Pharmacodynamics experiment B on gouty arthritis rats: ankle swelling rate; format: in vivo, SD rats; conditions: Rattus norvegicus, po, dose 0.6 mg/kg gavage, read-out: Swelling rate (ankle)
Summary of the method: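 Male SD rats dosed by gavage at 0.6 mg/kg (0.5% CMC-Na suspension) daily for 7 days before and 3 days after injection of 0.2 mL sodium urate solution into right ankle and knee joints. Ankle circumference measured before and 2-48 h after modeling; swelling rate = swelling degree/baseline ×100%, mean values.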

IL-6 = experiment: Inflammatory factor experiment B: IL-6 in knee synovial tissue (ELISA); format: in vivo, SD rats; conditions: Rattus norvegicus, po; synovial tissue of knee joints, 48 h after modeling; dose 0.6 mg/kg; read-out: IL-6 percentage decrease %
[2] = Acute toxicity test in mice by single administration; format: in vivo, ICR mice; conditions: both sexes, ICR, mouse, in vivo, po; acute toxicity, mice, single gavage; read-out: Maximum tolerated dose (MTD)
Description: (§1) Compounds 34, 48, 55 and 58 were ground with 0.5% CMC-Na before administration, and prepared into a suspension of the corresponding concentration for gavage, with an administration volume of 0.1 mL/10 g.
(§2) ICR mice, SPF grade, weighing 18-20 g, 6-8 weeks old, were provided by Nantong University. The Laboratory Animal Production License was SCXK (Su) 2016-0010 and Laboratory Animal Use License was SYXK (Su) 2017-0035.
(§3) After overnight fasting, the drug was administered once by gavage in a volume of 0.1 mL/10 g. The normal group was given the corresponding volume of 0.5% CMC-Na solution according to body weight. The state of the animal was observed after administration, the animals were weighed daily and the number of deaths was recorded for 14 consecutive days.

ICR mice = experiment: as above; format: in vivo; conditions: 14 days, deaths/animals
Description: as §1, §2, §3

[3] = In vivo pharmacokinetics in SD rats; conditions: Sprague-Dawley, rat; for F / AUC(0-inf) / MRT inf / Vd / clearance / Cmax / Tmax: in vivo; for half-life: plasma, read-out: t1/2 (converted)
Summary of the method: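 SD rats received compound intravenously (0.5 mg/mL solution) or by oral gavage (1 mg/mL, fasted overnight), both formulated in DMSO/Solutol HS15/saline. Plasma compound concentrations were measured by LC/MS/MS. Non-compartmental parameters were then calculated.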

IL-1β = experiment: Inflammatory factor experiment B: IL-1β in knee synovial tissue (ELISA); format: in vivo, SD rats; conditions: Rattus norvegicus, po; synovial tissue of knee joints, 48 h after modeling; dose 0.6 mg/kg; read-out: IL-1β percentage decrease %
[4] = test system: gouty arthritis rats (sodium urate, right ankle and knee joint cavities); experiment: Pharmacodynamics experiment B on gouty arthritis rats: gait score; format: in vivo, SD rats; conditions: for Gait Score: dose 0.6 mg/kg gavage, mean; for Gait versus model group, in words: compounds 0.6 mg/kg, colchicine 0.6 and 1.2 mg/kg
Summary of the method: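 Male SD rats (180-220 g) received test compounds by gavage as 0.5% CMC-Na suspensions, once daily for 7 days before modeling and for 3 days afterward. Gouty arthritis was induced by injecting 0.2 mL sodium urate solution into the right ankle and knee joint cavities. Gait was graded 0-3 using modified Coderre criteria, and group mean scores were compared with the model group by ANOVA-Dunnett T-test (P<0.05).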

[5] = Intravenous injection - 1 mg/kg

Compound | inhibition in vivo at 0.6 mg/kg (TNF-α) | change in vivo at 0.6 mg/kg ([1]; 2 h) | inhibition in vivo at 0.6 mg/kg (IL-6) | MTD at 14 days [2] | Mortality rate (ICR mice; single gavage dose 50 mg/kg) | Mortality rate (ICR mice; single gavage dose 100 mg/kg) | Mortality rate (ICR mice; single gavage dose 400 mg/kg) | Mortality rate (ICR mice; single gavage dose 600 mg/kg) | F ([3]; 10 mg/kg) | AUC(0-inf) ([3]; iv, 1 mg/kg) | MRT inf ([3]; iv, 1 mg/kg) | Vd ([3]; iv, 1 mg/kg) | clearance ([3]; iv, 1 mg/kg) | AUC(0-inf) ([3]; po, 10 mg/kg) | Cmax ([3]; po, 10 mg/kg) | MRT inf ([3]; po, 10 mg/kg) | Tmax ([3]; po, 10 mg/kg) | half-life ([3]; po, Gavage - 10 mg/kg) | half-life [3, 5] | inhibition in vivo at 0.6 mg/kg (IL-1β) | other results
COc1cc2c(c(OC)c1OC)-c1ccc(C(=O)Nc3ccccc3)c(=O)cc1[C@@H](NC(C)=O)CC2 [Compound 58, (S)-7-acetamido-1,2,3-trimethoxy-N-phenyl-9-oxo-5,6,7,9-tetrahydrobenzo[a]heptalen-10-carboxamide] | 80.5% | 6.48% | 86.7% | > 600 mg/kg | 0/6 | 0/6 | 0/6 | 0/6 | 109% | 1390 ng·h/mL | 2.04 h | 1.44 L/kg | 12.1 mL/min/kg | 15100 ng·h/mL | 2040 ng/mL | 4.58 h | 2.67 h | 2.22 h | 1.92 h | 87.5% | change in vivo at 0.6 mg/kg ([1]; 4 h): 13.8%; change in vivo at 0.6 mg/kg ([1]; 8 h): 17.2%; change in vivo at 0.6 mg/kg ([1]; 10 h): 20.4%; change in vivo at 0.6 mg/kg ([1]; 24 h): 18.1%; change in vivo at 0.6 mg/kg ([1]; 48 h): 8.42%; Gait Score ([4]; 2 h): 0; Gait Score ([4]; 4 h): 0*; Gait Score ([4]; 8 h): 0.3; Gait Score ([4]; 10 h): 0.2**; Gait Score ([4]; 24 h): 0; Gait Score ([4]; 48 h): 0; Gait versus model group, in words [4]: significant improvement in gait occurred at different time points
CCNC(=O)c1ccc2c(cc1=O)[C@@H](NC(C)=O)CCc1cc(OC)c(OC)c(OC)c1-2 [Compound 55, (S)-7-acetamido-1,2,3-trimethoxy-N-ethyl-9-oxo-5,6,7,9-tetrahydrobenzo[a]heptalen-10-carboxamide] | 86.4% | – | 128% | > 600 mg/kg | 0/6 | 0/6 | 0/6 | 0/6 | 115% | 543 ng·h/mL | 0.592 h | 1.1 L/kg | 31.2 mL/min/kg | 6260 ng·h/mL | 2040 ng/mL | 2.72 h | 0.333 h | 2.02 h | 0.6 h | 133% | –
CNC(=O)c1ccc2c(cc1=O)[C@@H](NC(C)=O)CCc1cc(OC)c(OC)c(OC)c1-2 [Compound 48, (S)-7-acetamido-1,2,3-trimethoxy-N-methyl-9-oxo-5,6,7,9-tetrahydrobenzo[a]heptalene-10-carboxamide] | 81.6% | 9.42% | 110% | > 600 mg/kg | 0/6 | 0/6 | 0/6 | 0/6 | 57.0% | 580 ng·h/mL | 0.641 h | 1.11 L/kg | 29.2 mL/min/kg | 3300 ng·h/mL | 1930 ng/mL | 1.83 h | 0.25 h | 1.61 h | 0.536 h | 82.2% | change in vivo at 0.6 mg/kg ([1]; 4 h): 15.5%; change in vivo at 0.6 mg/kg ([1]; 8 h): 21%; change in vivo at 0.6 mg/kg ([1]; 10 h): 21.5%; change in vivo at 0.6 mg/kg ([1]; 24 h): 22.4%; change in vivo at 0.6 mg/kg ([1]; 48 h): 13.6%; Gait Score ([4]; 2 h): 0; Gait Score ([4]; 4 h): 0.1; Gait Score ([4]; 8 h): 0.1**; Gait Score ([4]; 10 h): 0**; Gait Score ([4]; 24 h): 0*; Gait Score ([4]; 48 h): 0; Gait versus model group, in words [4]: significant improvement in gait occurred at different time points
